{
  "source": "ChEMBL document CHEMBL5604063",
  "about": "“ASAP - DENV-2 NS2B-NS3 protease fluorescence dose response” (2024)",
  "note": "Several values for one entry are separate records, joined by “and”; a condition that tells them apart may be missing. Equal entries are not always repeated.",
  "data": [
    {"molecular_target": "Genome polyprotein (dengue virus type 2, UniProt P29990)", "sequence (P29990 1346-1475 limits assumed)": "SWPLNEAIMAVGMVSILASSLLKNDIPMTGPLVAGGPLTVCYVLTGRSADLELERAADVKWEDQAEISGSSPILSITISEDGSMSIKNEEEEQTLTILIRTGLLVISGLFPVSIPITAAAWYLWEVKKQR", "sequence (P29990 1476-2093 limits assumed)": "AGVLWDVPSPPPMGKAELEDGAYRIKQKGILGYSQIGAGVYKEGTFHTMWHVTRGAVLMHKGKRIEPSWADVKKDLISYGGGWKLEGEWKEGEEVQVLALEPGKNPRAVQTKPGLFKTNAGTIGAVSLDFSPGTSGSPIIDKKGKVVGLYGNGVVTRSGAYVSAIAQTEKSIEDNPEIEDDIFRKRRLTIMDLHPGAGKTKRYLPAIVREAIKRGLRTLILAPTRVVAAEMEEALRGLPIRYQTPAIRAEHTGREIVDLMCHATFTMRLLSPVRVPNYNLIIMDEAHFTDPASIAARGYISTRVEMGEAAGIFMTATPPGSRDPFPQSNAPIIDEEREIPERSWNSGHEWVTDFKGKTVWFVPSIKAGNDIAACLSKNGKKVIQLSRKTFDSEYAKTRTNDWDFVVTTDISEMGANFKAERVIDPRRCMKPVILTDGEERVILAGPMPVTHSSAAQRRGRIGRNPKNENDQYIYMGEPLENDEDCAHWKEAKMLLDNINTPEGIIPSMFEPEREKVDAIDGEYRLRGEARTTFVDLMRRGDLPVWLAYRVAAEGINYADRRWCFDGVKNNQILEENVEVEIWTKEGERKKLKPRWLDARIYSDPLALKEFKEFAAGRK", "type": "functional, Thailand/16681/1984", "values": [
      {"molecule": "CCn1c(=O)c(N2C[C@@H](CO)[C@H](c3cncn3C)C2)nc2ccccc21", "IC50": "> 99.5 µM"},
      {"molecule": "NCc1ccccc1C1CCN(C(=O)[C@H]2CCN3CC[C@H]2C3)CC1", "IC50": "> 99.5 µM"},
      {"molecule": "NCc1cccc(NC(=O)[C@@H](NC(=O)OCc2ccccc2)c2ccc(OCc3ncccn3)cc2)c1", "IC50": "> 99.5 µM"},
      {"molecule": "Cc1cc(C(=O)O)c(NS(=O)(=O)c2ccc(Oc3ccccc3)cc2)cc1F", "IC50": "24.9 µM"},
      {"molecule": "Cn1ccnc1S(=O)(=O)N[C@@H](C(=O)Nc1cccc(CN)c1)c1ccc(OCc2ccccc2)cc1", "IC50": "> 99.5 µM"},
      {"molecule": "CCn1cnnc1COc1ccc(S(=O)(=O)Nc2ccc(Cl)cc2C(=O)O)cc1", "IC50": "> 99.5 µM"},
      {"molecule": "c1ccc2c(CN3CCCc4cnccc4C3)n[nH]c2c1", "IC50": "> 99.5 µM"},
      {"molecule": "O=C(N[C@@H](C(=O)NCc1ccncc1)c1ccc(OCc2ccccc2)cc1)OCc1ccccc1", "IC50": "> 99.5 µM"},
      {"molecule": "Cn1nc2c(c1NC(=O)[C@@H](NC(=O)OCc1ccccc1)c1ccc(OCc3ccccc3)cc1)CNC2", "IC50": "> 99.5 µM"},
      {"molecule": "O=C(O)c1cc(Cl)cc(F)c1NS(=O)(=O)c1ccc(Oc2ccccc2Cl)cc1", "IC50": "18.6 µM"},
      {"molecule": "CCCC[C@H](N)C(=O)N[C@@H](C(=O)NCc1ccc(C(N)=O)cc1)c1ccc(OCc2ccccc2)cc1", "IC50": "> 99.5 µM"},
      {"molecule": "NCc1cccc(NC(=O)[C@@H](NC(=O)OCc2ccccc2)c2ccc(-c3cccnc3F)cc2)c1", "IC50": "71.4 µM"},
      {"molecule": "CCn1c(=O)c(N2C[C@@H]3CCO[C@]3(COC)C2)nc2ccccc21", "IC50": "> 99.5 µM"},
      {"molecule": "NC(=O)c1cnccc1N1CCN(Cc2c[nH]c3ccccc23)CC1", "IC50": "> 99.5 µM"},
      {"molecule": "O=C(NCC1CC1)[C@H]1CCCC[C@H]1NS(=O)(=O)c1ccc(Oc2ccccc2Cl)cc1", "IC50": "> 99.5 µM"},
      {"molecule": "CCn1cc(-c2cnn(C)n2)nc(N2CC[C@@H](CO)C2)c1=O", "IC50": "> 99.5 µM"},
      {"molecule": "CCn1c(=O)c(N2C[C@@H]3[C@H](C2)[C@H]3C(=O)OC)nc2ccccc21", "IC50": "> 99.5 µM"},
      {"molecule": "NC(=O)c1cccnc1N1CCCN(c2nc(-c3cc(Cl)cc(Cl)c3)no2)CC1", "IC50": "> 99.5 µM"},
      {"molecule": "Cn1ccc(-c2n[nH]cc2CN2CCC(c3nc4ccccc4s3)CC2)n1", "IC50": "> 99.5 µM"},
      {"molecule": "CCCC[C@H](NC(C)=O)C(=O)N[C@H](C(=O)Nc1ccc(C(N)=O)cc1)c1ccc(OCc2ccccc2)cc1", "IC50": "> 99.5 µM"},
      {"molecule": "Cc1c(C(=O)Nc2ccc3c(c2)CCCC(=O)N3)cc(C2CC2)n1C", "IC50": "> 99.5 µM"},
      {"molecule": "CN1Cc2ccc(CNC(=O)[C@@H](NC(=O)OCc3ccccc3)c3ccc(OCc4ccccc4)cc3)cc2C1", "IC50": "> 99.5 µM"},
      {"molecule": "CNC(=O)c1cc(Cl)ccc1NS(=O)(=O)c1ccc(OC2CCCC2)nc1", "IC50": "> 99.5 µM"},
      {"molecule": "C[C@H]1CN(C(=O)Cc2ccc(C=O)[nH]2)CCN1C1CCCC1", "IC50": "> 99.5 µM"},
      {"molecule": "O=C(O)c1cc(Cl)ccc1S(=O)(=O)Nc1ccc(N2CCCCC2)c(F)c1", "IC50": "> 99.5 µM"},
      {"molecule": "NCc1cccc(NC(=O)[C@H]2[C@H]3CCCCC[C@H]3[C@H]2NC(=O)OCc2ccccc2)c1", "IC50": "23.2 µM and 34.2 µM and 10.4 µM and 9.2 µM and 8.71 µM"},
      {"molecule": "CCn1cc(-c2ccccc2C(=O)OC)nc(N2CC[C@@H](CO)C2)c1=O", "IC50": "> 99.5 µM"},
      {"molecule": "Cc1nccnc1Oc1ccc(S(=O)(=O)Nc2ccc(Cl)cc2C(=O)O)cc1", "IC50": "> 99.5 µM"},
      {"molecule": "O=Cc1ccc(N2CCC(C(=O)N3CCN(c4ccc([N+](=O)[O-])cc4C(F)(F)F)CC3)CC2)cc1", "IC50": "> 99.9 µM"},
      {"molecule": "Cc1cc(C=O)c(C)n1-c1cccc(C(=O)N2CCN(C)CC2)c1", "IC50": "> 99.5 µM"},
      {"molecule": "O=C(NCC1CC1)c1cc(Cl)cc(NS(=O)(=O)c2ccc(Oc3ccccc3Cl)cc2)c1", "IC50": "23.5 µM"},
      {"molecule": "COc1ccc(S(=O)(=O)Nc2ccc(Cl)cc2C(=O)O)cc1", "IC50": "> 99.5 µM"},
      {"molecule": "Fc1cc(F)c2[nH]cc(CN3CCC(c4cscn4)CC3)c2c1F", "IC50": "> 99.5 µM"},
      {"molecule": "NCc1cccc(NC(=O)[C@@H]2[C@@H]3CCCCC[C@@H]3[C@@H]2NC(=O)OCc2ccccc2)c1", "IC50": "22.2 µM"},
      {"molecule": "CCc1ccccc1COc1ccc(S(=O)(=O)Nc2ccc(Cl)cc2C(=O)O)cc1", "IC50": "6.5 µM"},
      {"molecule": "Cc1c[nH]nc1CN1CCC(c2cscn2)CC1", "IC50": "> 99.5 µM"},
      {"molecule": "NCc1cccc(NC(=O)[C@@H](NC(=O)c2cccnc2)c2ccc(OCc3ccccc3)cc2)c1", "IC50": "> 99.5 µM"},
      {"molecule": "CCn1ccnc(N2CC[C@@H](CO)C2)c1=O", "IC50": "> 99.5 µM"},
      {"molecule": "O=C(Nc1ccc2c(c1)CNC2)c1cccc2nc(C(F)(F)F)[nH]c12", "IC50": "> 99.5 µM"},
      {"molecule": "O=C(O)c1cc(Cl)ccc1S(=O)(=O)N[C@H]1CC[C@H](Oc2cnccn2)CC1", "IC50": "> 99.5 µM"},
      {"molecule": "CCn1ccnc(N2CC[C@H](c3cccc(C#N)c3)C2)c1=O", "IC50": "> 99.5 µM"},
      {"molecule": "Cn1ncnc1Sc1nc(C2CCCC2)ns1", "IC50": "> 99.5 µM"},
      {"molecule": "O=S(=O)(CCOc1ccccc1)c1nccs1", "IC50": "> 99.5 µM"},
      {"molecule": "COc1cc(NS(=O)(=O)c2ccc(Oc3ccccc3Cl)cc2)c(C(=O)O)cc1Cl", "IC50": "8.67 µM"},
      {"molecule": "COc1cccc(-c2ccc([C@@H](NC(=O)OCc3ccccc3)C(=O)Nc3cccc(CN)c3)cc2)c1", "IC50": "9.12 µM and 6.13 µM and 6.64 µM"},
      {"molecule": "[O-][S@@+](Cc1nc(-c2cccs2)no1)c1cccs1", "IC50": "> 99.5 µM"},
      {"molecule": "NCCc1ccc(NC(=O)c2cc(Cl)cc(NC(=O)OCc3ccccc3)c2)cc1", "IC50": "30.9 µM"},
      {"molecule": "O=C(O)c1cccc(NC(=O)c2cccc(OCc3c(Cl)cccc3Cl)c2)c1", "IC50": "> 99.5 µM"},
      {"molecule": "CS(=O)(=O)c1ccc(N2CCN(C(=O)C3CCN(c4ccc(C=O)cc4)CC3)CC2)c([N+](=O)[O-])c1", "IC50": "85.7 µM"},
      {"molecule": "CCc1ccc(-c2ccc([C@@H](NC(=O)OCc3ccccc3)C(=O)Nc3cccc(CN)c3)cc2)cc1", "IC50": "6.61 µM"},
      {"molecule": "CCn1cc(-c2ccc(S(C)(=O)=O)cc2)nc(N2CC[C@@H](CO)C2)c1=O", "IC50": "> 99.5 µM"},
      {"molecule": "O=C(O)c1cc(Cl)ccc1S(=O)(=O)Nc1ccc(N2CCCS2(=O)=O)cc1", "IC50": "> 99.5 µM"},
      {"molecule": "NCc1cccc(CNC(=O)c2cc(Cl)cc(NC(=O)OCc3ccccc3)c2)c1", "IC50": "> 99.5 µM"},
      {"molecule": "O=S(=O)(c1cccnc1)N1CCN(Cc2c[nH]c3ccccc23)CC1", "IC50": "> 99.5 µM"},
      {"molecule": "O=C(O)c1cc(Cl)ccc1NS(=O)(=O)c1ccc(-c2cscn2)cc1", "IC50": "87.5 µM"},
      {"molecule": "c1ccc2sc(C3CCN(CCc4c[nH]c5ccccc45)CC3)nc2c1", "IC50": "> 99.5 µM"},
      {"molecule": "O=C(N[C@@H](C(=O)Nc1ccccn1)c1ccc(OCc2ccccc2)cc1)OCc1ccccc1", "IC50": "> 99.5 µM"},
      {"molecule": "COc1ccc(CNC(=O)[C@@H](NC(=O)OCc2ccccc2)c2ccc(OCc3ccccc3)cc2)cn1", "IC50": "> 99.5 µM"},
      {"molecule": "CCn1cc(-c2ccc3c(c2)CCNC3)nc(N2CC[C@@H](CO)C2)c1=O", "IC50": "> 99.5 µM"},
      {"molecule": "NCc1cccc(CNC(=O)[C@H](NC(=O)OCc2ccccc2)c2ccc(OCc3ccccc3)cc2)c1", "IC50": "15.3 µM"},
      {"molecule": "CCn1c(=O)c(N2CC3(CCCCC3)C[C@H]2CO)nc2ccccc21", "IC50": "> 99.5 µM"},
      {"molecule": "O=C(NCC1CCCCC1)[C@H]1CCCN1C(=O)Nc1ccc2c(c1)CNC2", "IC50": "> 99.5 µM"},
      {"molecule": "CNC(=O)c1cccc(CCC(=O)Nc2cc(Cl)cc(C(=O)NC(C)(C)CO)c2)c1", "IC50": "> 99.5 µM"},
      {"molecule": "NC[C@H]1CC[C@H](CNC(=O)[C@@H](NC(=O)OCc2ccccc2)c2ccc(OCc3ccccc3)cc2)CC1", "IC50": "> 99.5 µM"},
      {"molecule": "CCOc1ccc([C@@H](NC(=O)OCc2ccccc2)C(=O)Nc2cccc(CN)c2)cc1", "IC50": "> 99.5 µM"},
      {"molecule": "O=C(NC[C@H]1CCCO1)c1cc(Cl)ccc1NS(=O)(=O)c1ccc(Oc2ccccc2Cl)cc1", "IC50": "> 99.5 µM"},
      {"molecule": "COc1cc(Br)ccc1[C@@H](NC(=O)OCc1ccccc1)C(=O)Nc1cccc(CN)c1", "IC50": "83.9 µM"},
      {"molecule": "Cc1ccc(NC(=O)OC(C)(C)C)c2[nH]cc(CN3CCC(c4cscn4)CC3)c12", "IC50": "> 99.5 µM"},
      {"molecule": "O=C(Nc1ccc2c(c1)CNC2)c1cc(F)cc2[nH]nnc12", "IC50": "> 99.5 µM"},
      {"molecule": "O=C(NCc1c[nH]nn1)c1cc(Cl)ccc1NS(=O)(=O)c1ccc(Oc2ccccc2Cl)cc1", "IC50": "29.9 µM"},
      {"molecule": "COc1ccc2c(O)nn(S(=O)(=O)c3ccc(C(=O)O)cc3)c2c1", "IC50": "> 99.5 µM"},
      {"molecule": "CCn1cc(C(=O)NC)nc(N2CC[C@@H](CO)C2)c1=O", "IC50": "> 99.5 µM"}
    ]}
  ]
}
